From PMC7287031 (Pharmacology Research & Perspectives, 2020)

Tests used:
[1] = In vitro plasma protein binding (ultrafiltration), human; format: in vitro ADME; conditions: plasma, 10-10 000 ng/mL
Method: (§1) Stock solutions were spiked into plasma to achieve the intended concentrations. After incubation for 1 hour at 37°C under constant gentle agitation, the spiked plasma samples (n = 3) were centrifuged (2000 g, 10 min, 37°C) in pre‐warmed Centrifree devices. Total radioactivity was determined in the ultrafiltrate (Cu, concentration of unbound compound) and in the sample introduced into the reservoir before ultrafiltration (Cp). The unbound (fu) and the bound (fb) fraction in plasma were calculated as follows: fu (%) = Cu/Cp × 100; fb (%) = 100‐Fu (%).

[2] = tested on: plasma protein; experiment: as above; format: in vitro ADME; conditions: rat, dog
Method: as §1

[3] = Tissue distribution by quantitative whole-body autoradiography (QWBA); format: in vivo; conditions: rat QWBA
Method: ADME studies (including QWBA in pigmented and non‐pigmented rats) using radiolabeled ribociclib were conducted in rat and dog. Relevant institutional and national guides for the care and use of laboratory animals were followed.
QWBA studies were conducted with the tritium label in Hanover Wistar and partially pigmented Long‐Evans rats. A further QWBA study was conducted with the carbon‐14 label in male Long Evans rats in order to support the dosimetry calculation for the human ADME study. Briefly, 40‐µm thick lengthwise dehydrated whole body sections were exposed for 1 day to Fuji BAS III imaging plates (Fuji Photo Film Co., Ltd., J‐Tokyo) in a lead‐shielded box and room temperature, and scanned in a Fuji BAS 5000 phosphor imager at a 50‐µm scanning step. Concentrations of total radiolabeled components in the tissues were determined by comparative densitometry and digital analysis of the autoradiogram; blood samples of known radioactivity concentrations processed under the same conditions as the samples to analyze were used as calibrators.

[4] = tested on: human liver microsomes; experiment: Enzyme kinetics of total oxidative metabolism in pooled human liver microsomes; format: in vitro ADME; conditions: pooled HLM, Michaelis-Menten model
Method: (§2) In vitro incubations were carried out in 100‐mM potassium phosphate buffer (pH 7.4) and 5‐mM MgCl2 with a total volume of 200 µL. Substrate and either human liver microsomes (HLM, BD Biosciences, mixed gender pool of n = 50) or recombinant human enzymes (BD Biosciences) were added and pre‐incubated for 3 minutes at 37°C. The reaction was started by addition of a fresh solution of NADPH (1 mmol/L final concentration). The samples were incubated at 37°C with agitation of 500 rpm. For incubations with CYP2A6, CYP2C9, CYP2C18, and CYP4A11, the phosphate buffer was replaced by TRIS buffer (100 mmol/L, pH 7.4) and for flavin‐containing monooxygenases (FMOs), a glycine buffer (50 mM, pH 9.5) was used.
(§3) The enzymatic reaction was stopped and the protein was precipitated by addition of an equal volume of methanol. After 30 min at −80°C, the samples were centrifuged at 30'000 x g for 15 min. The supernatant was withdrawn. Aliquots were analyzed by LSC and the supernatant was diluted with water to obtain a final solution containing less than 20% of the organic solvent. […] Samples were analyzed by HPLC combined with radiodetection.
(§4) Km and Vmax parameters were calculated by using SigmaPlot Version 8.0, Enzyme Kinetics module Version 1.1 software (SPSS Science Inc, Chicago, IL, USA). The intrinsic clearance was calculated by the equation: CLint = Vmax/Km.

[5] = as above; format: in vitro ADME; conditions: both sexes, human, pooled human liver microsomes, pH 7.4; pooled HLM, Michaelis-Menten model
Method: as §2, §3, §4

[6] = Integrated estimation of ribociclib elimination pathways in humans; set-up: species or system human
[7] = target: T1, CYP1A2 (Homo sapiens, UniProt P05177); experiment: Enzyme kinetics with recombinant CYP1A2 and scaling to HLM; format: in vitro ADME
T1 construct: purchased BD Biosciences
T1 sequence (P05177 1-516): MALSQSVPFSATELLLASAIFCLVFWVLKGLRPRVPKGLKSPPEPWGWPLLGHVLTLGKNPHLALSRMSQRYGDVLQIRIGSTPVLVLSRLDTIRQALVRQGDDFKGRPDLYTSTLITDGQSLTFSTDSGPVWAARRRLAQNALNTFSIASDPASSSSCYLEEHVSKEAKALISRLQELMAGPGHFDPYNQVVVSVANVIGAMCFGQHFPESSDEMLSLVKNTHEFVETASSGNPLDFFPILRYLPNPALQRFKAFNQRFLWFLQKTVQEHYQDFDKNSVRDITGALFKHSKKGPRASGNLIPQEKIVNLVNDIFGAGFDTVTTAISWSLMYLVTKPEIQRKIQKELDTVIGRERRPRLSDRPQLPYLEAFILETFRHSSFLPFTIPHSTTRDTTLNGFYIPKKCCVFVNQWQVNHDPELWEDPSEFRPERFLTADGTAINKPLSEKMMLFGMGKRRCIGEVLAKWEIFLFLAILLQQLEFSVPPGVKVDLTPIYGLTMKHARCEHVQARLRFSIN
Method: as §2
The enzymatic reaction was stopped and the protein was precipitated by addition of an equal volume of methanol. After 30 min at −80°C, the samples were centrifuged at 30'000 x g for 15 min. The supernatant was withdrawn. Aliquots were analyzed by LSC and the supernatant was diluted with water to obtain a final solution containing less than 20% of the organic solvent. For samples of low substrate concentration, supernatants were evaporated to dryness under nitrogen, then re‐suspended in water containing less than 20% of methanol. Samples were analyzed by HPLC combined with radiodetection. […]

[8] = In vitro plasma protein binding (ultrafiltration), rat; format: in vitro ADME; conditions: 100 and 1000 ng/mL
Method: as §1

[9] = human estimate based on rat ADME data

CN(C)C(=O)c1cc2cnc(Nc3ccc(N4CCNCC4)cn3)nc2n1C1CCCC1 [ribociclib, Ribociclib]
fraction unbound at 1 h [1]: 0.3 ± 0.02
difference in unbound fraction in plasma between species [2]: up to 1.7 fold
time of last measurable concentration (total radioactivity) ([3]; 52 of 58 tissues investigated): ≤ 48 h
time of last measurable concentration (total radioactivity) ([3]; eyes and meninges, last observation time point): 840 h
tissue distribution of total radioactivity ([3]; intravenous or oral dose): marked distribution into the extravascular compartment, except for brain
time of last measurable concentration (total radioactivity) ([3]; lymph nodes, preputial gland, testis): 168 h
Vmax, total metabolism [4]: 766 ± 13 pmol/min/mg
Km [5]: 29.1 ± 1.8 µM
biliary elimination, share of total [6, 9]: 1%
elimination by intestinal excretion/secretion, share of total [6, 9]: 8%
elimination by hepatic metabolism, share of total ([6]; human, integrated estimate): approx. 84%
elimination by renal excretion, share of total ([6]; human, integrated estimate): 7%
fm,CYP ([7]; CYP1A2, share of total CYP-mediated metabolism in HLM): 1.1%
fumic ([7]; CYP1A2 incubation): 0.86
fraction unbound at 1 h [8]: 0.2 ± 0.01
